Reference: patent publication US20260109732A1, “LIPID AMINES” (ModernaTX, Inc., priority 2021, published 2026)
Structures can show the parent of a compound that is named as a salt.

Key:
[1] = system: HeLa cells; experiment: Luciferase Protein Expression Assay in HeLa Cells; format: cell-based, Human; conditions: LNPs encapsulating Luciferase mRNA, 25 ng per well, N=4 wells; 5 h serum-free then 24 h; ONE-Glo
Procedure, shortened: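 HeLa cells received LNPs carrying luciferase mRNA (25 ng per well) or PBS in serum-free MEM for 5 h, then complete MEM for a further 24 h. Luciferase then read by ONE-Glo luminescence after lysis and reported as average RLU of 4 replicate wells.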

[2] = Encapsulation of mRNA nanoparticles with lipid amines using Ribogreen assay; format: physicochemical
Procedure, shortened: (§1)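 Ionizable lipid nanoparticles (IL1:DSPC:cholesterol:PEG-DMG-2K) formed by vortex mixing at pH 4, loaded with luciferase or CFTR mRNA at N:P 4.93, neutralized with TRIS pH 8.12, then modified with lipid amine SA50 at pH 7.5. Particle diameter and PDI read by DLS; mRNA encapsulation by Ribogreen assay.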

[3] = Diameter and PDI from DLS measurements of mRNA nanoparticles with lipid amines; format: physicochemical
Procedure, shortened: as §1

[4] = system: HeLa cells; experiment: CFTR Protein Expression Assay in HeLa Cells; format: cell-based, Human; conditions: LNPs encapsulating CFTR mRNA, N=4 wells; 5 h serum-free then 24 h; immunofluorescence vs PBS control
Procedure, shortened: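 HeLa cells dosed with CFTR mRNA LNPs (70 mM NaCl final buffer matrix) in serum-free MEM for 5 h, then complete MEM for 24 h. Fixed cells immunostained with anti-CFTR monoclonal and Alexa 488 secondary, imaged confocally; CFTR intensity per cell expressed as fold-change versus PBS buffer control, N=4 wells.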

[5] = CFTR mRNA nanoparticle with lipid amine
[6] = Luciferase mRNA nanoparticle modified with lipid amine

| Compound | Average Relative Light Units ± Standard Deviation [1] | % Encapsulation (Ribogreen) [2, 5] | % Encapsulation (Ribogreen) [2, 6] | Diameter (nm) [3, 5] | PDI [3, 5] | Diameter (nm) [3, 6] | PDI [3, 6] | Average fold-change in CFTR signal intensity per cell compared to buffer control ± standard deviation [4] |
| --- | --- | --- | --- | --- | --- | --- | --- | --- |
| CC[C@H](CC[C@@H](C)[C@H]1CC[C@H]2[C@@H]3CC=C4C[C@@H](OC(=O)N(CCCCCCN)CCCCCCN)CC[C@]4(C)[C@H]3CC[C@]12C)C(C)C [SA82, (3S,8S,9S,10R,13R,14S,17R)-17-((2R,5R)-5-Ethyl-6-methylheptan-2-yl)-10,13-dimethyl-2,3,4,7,8,9,10,11,12,13,14,15,16,17-tetradecahydro-1H-cyclopenta[a]phenanthren-3-yl bis(6-aminohexyl)carbamate dihydrochloride] | 33396.2 ± 4902.7 Relative Light Units | 99.4% | 99.1% | 80.7 nm | 0.13 | 73 nm | 0.11 | 4.6 ± 0.2 fold-change |
| CC(C)CCC[C@@H](C)[C@H]1CC[C@H]2[C@@H]3CC=C4C[C@@H](OC(=O)N(CCCN)CCCCCCN)CC[C@]4(C)[C@H]3CC[C@]12C [SA83, (3S,8S,9S,10R,13R,14S,17R)-10,13-Dimethyl-17-((R)-6-methylheptan-2-yl)-2,3,4,7,8,9,10,11,12,13,14,15,16,17-tetradecahydro-1H-cyclopenta[a]phenanthren-3-yl (6-aminohexyl)(3-aminopropyl)carbamate dihydrochloride] | 35394.8 ± 5033.2 Relative Light Units | 99.8% | 99.3% | 82.3 nm | 0.15 | 75 nm | 0.14 | 4.8 ± 0.3 fold-change |
| CC[C@H](CC[C@@H](C)[C@H]1CC[C@H]2[C@@H]3CC=C4C[C@@H](OC(=O)N(CCCN)CCCCCCN)CC[C@]4(C)[C@H]3CC[C@]12C)C(C)C [SA84, (3S,8S,9S,10R,13R,14S,17R)-17-((2R,5R)-5-Ethyl-6-methylheptan-2-yl)-10,13-dimethyl-2,3,4,7,8,9,10,11,12,13,14,15,16,17-tetradecahydro-1H-cyclopenta[a]phenanthren-3-yl (6-aminohexyl)(3-aminopropyl)carbamate dihydrochloride] | 29639.9 ± 7554 Relative Light Units | 99.5% | 99.9% | 82 nm | 0.13 | 74 nm | 0.16 | 5.0 ± 0.2 fold-change |
| CC(C)CCC[C@@H](C)[C@H]1CC[C@H]2[C@@H]3CC=C4C[C@@H](OC(=O)N(CCCCNCC(F)CN)CC(F)CN)CC[C@]4(C)[C@H]3CC[C@]12C (stereo partly drawn) [SA87, (3S,8S,9S,10R,13R,14S,17R)-10,13-dimethyl-17-((R)-6-methylheptan-2-yl)-2,3,4,7,8,9,10,11,12,13,14,15,16,17-tetradecahydro-1H-cyclopenta[a]phenanthren-3-yl (3-amino-2-fluoropropyl)(4-((3-amino-2-fluoropropyl)amino)butyl)carbamate trihydrochloride] | 13346.1 ± 2590.8 Relative Light Units | 99.5% | 98.2% | 81.2 nm | 0.1 | 75 nm | 0.18 | 3.2 ± 0.1 fold-change |
| CC(C)CCC[C@@H](C)[C@H]1CC[C@H]2[C@@H]3CC=C4C[C@@H](OC(=O)N(CCCCNCC(O)CN)CC(O)CN)CC[C@]4(C)[C@H]3CC[C@]12C (stereo partly drawn) [SA88, (3S,8S,9S,10R,13R,14S,17R)-10,13-dimethyl-17-((R)-6-methylheptan-2-yl)-2,3,4,7,8,9,10,11,12,13,14,15,16,17-tetradecahydro-1H-cyclopenta[a]phenanthren-3-yl (3-amino-2-hydroxypropyl)(4-((3-amino-2-hydroxypropyl)amino)butyl)carbamate trihydrochloride] | 17105.3 ± 7097.3 Relative Light Units | 99.1% | 99.8% | 89.4 nm | 0.19 | 75 nm | 0.13 | 4.5 ± 0.2 fold-change |
| CC(C)CCC[C@@H](C)[C@H]1CC[C@H]2[C@@H]3CC=C4C[C@@H](OC(=O)CCCCC(=O)N(CCCN)CCCCNCCCN)CC[C@]4(C)[C@H]3CC[C@]12C [SA89, (3S,8S,9S,10R,13R,14S,17R)-10,13-dimethyl-17-((R)-6-methylheptan-2-yl)-2,3,4,7,8,9,10,11,12,13,14,15,16,17-tetradecahydro-1H-cyclopenta[a]phenanthren-3-yl 6-((3-aminopropyl)(4-((3-aminopropyl)amino)butyl)amino)-6-oxohexanoate trihydrochloride] | 8209.2 ± 4138.5 Relative Light Units | 98.6% | 99.7% | 86.5 nm | 0.15 | 77 nm | 0.16 | 3.7 ± 0.4 fold-change |
| CC[C@H](CC[C@@H](C)[C@H]1CC[C@H]2[C@@H]3CC=C4C[C@@H](OC(=O)CCCCC(=O)N(CCCN)CCCCNCCCN)CC[C@]4(C)[C@H]3CC[C@]12C)C(C)C [SA90, (3S,8S,9S,10R,13R,14S,17R)-17-((2R,5R)-5-ethyl-6-methylheptan-2-yl)-10,13-dimethyl-2,3,4,7,8,9,10,11,12,13,14,15,16,17-tetradecahydro-1H-cyclopenta[a]phenanthren-3-yl 6-((3-aminopropyl)(4-((3-aminopropyl)amino)butyl)amino)-6-oxohexanoate trihydrochloride] | 9337.4 ± 3055.2 Relative Light Units | 98.1% | 99.6% | 84.6 nm | 0.14 | 76 nm | 0.19 | 4.2 ± 0.4 fold-change |
| CC(C)CCC[C@@H](C)[C@H]1CC[C@H]2[C@@H]3CC=C4C[C@@H](OC(=O)N(CCCN)CCCCCCCCCCN)CC[C@]4(C)[C@H]3CC[C@]12C [SA95, (3S,8S,9S,10R,13R,14S,17R)-10,13-Dimethyl-17-((R)-6-methylheptan-2-yl)-2,3,4,7,8,9,10,11,12,13,14,15,16,17-tetradecahydro-1H-cyclopenta[a]phenanthren-3-yl (10-aminodecyl)(3-aminopropyl)carbamate dihydrochloride] | 22952.2 ± 5937.7 Relative Light Units | 99.3% | 99.7% | 83.6 nm | 0.14 | 75 nm | 0.20 | 4.2 ± 0.8 fold-change |
| CC[C@H](CC[C@@H](C)[C@H]1CC[C@H]2[C@@H]3CC=C4C[C@@H](OC(=O)N(CCCN)CCCCCCCCCCN)CC[C@]4(C)[C@H]3CC[C@]12C)C(C)C [SA96, (3S,8S,9S,10R,13R,14S,17R)-17-((2R,5R)-5-Ethyl-6-methylheptan-2-yl)-10,13-dimethyl-2,3,4,7,8,9,10,11,12,13,14,15,16,17-tetradecahydro-1H-cyclopenta[a]phenanthren-3-yl (10-aminodecyl)(3-aminopropyl)carbamate dihydrochloride] | 17172.8 ± 2176 Relative Light Units | 98.9% | 99.6% | 82.3 nm | 0.12 | 71 nm | 0.15 | 5.2 ± 0.7 fold-change |
